From patent US20260317344A1, “EGFR INHIBITORS FOR TREATING DISEASE” (BLOSSOMHILL THERAPEUTICS, INC., priority 2023, published 2026)

How the values were obtained:
[1] = biological target: EGFR (D746-750) (Homo sapiens, UniProt P00533, DEL746-750); assay: HotSpot radiometric kinase assay, inhibition of EGFR 746-750 mutant; type: biochemical; settings: 33P ATP, room temperature, 120 m
Method in brief: (§1)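 Kinase/substrate pairs in 20 mM HEPES pH 7.5, 10 mM MgCl2, 1 mM EGTA, 0.02% Brij35, 0.02 mg/ml BSA, 0.1 mM Na3VO4, 2 mM DTT, 1% DMSO, preincubated ~20 min with compound. Reaction started with ATP/33P-ATP ([…]), run 120 min at room temperature; phosphorylation read by P81 filter binding, IC50 from curve fits.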

[2] = test system: BaF3 cells with engineered EGFR L858R/T790M/C797S; assay: 3-Day CellTiter Glo (CTG) cell proliferation assay, BaF3 EGFR L858R/T790M/C797S; type: cell-based; settings: Mus musculus, 3-day CTG proliferation, 72 hours
Method in brief: (§2)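 Viability after 72 h compound exposure (9 concentrations, 37° C, 5% CO2) was measured as ATP luminescence with CellTiter-Glo 2.0 in EGFR-mutant-engineered BaF3 cells plated at one thousand cells per well. IC50 values obtained by curve fitting.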

[3] = test system: BaF3 cells with engineered EGFR d746-750/T790M; assay: 3-Day CellTiter Glo (CTG) cell proliferation assay, BaF3 EGFR d746-750/T790M; type: cell-based; settings: Mus musculus; BaF3 EGFR d746-750/T790M cells, 3-day CTG proliferation, 72 hours
Method in brief: as §2

[4] = biological target: T1, pEGFR, PC-9 cells (d746-750 EGFR) (Homo sapiens, UniProt P00533, DEL746-750); assay: Cellular EGFR phosphorylation assay (LANCE Ultra TR-FRET) in PC-9 cells; type: cell-based; settings: 4 hours at 37° C., read-out: PC-9 pEGFR IC50
T1 construct: pEGFR (Tyr1068) TR-FRET
Method in brief: (§3)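 4 h compound treatment at 37 °C, 9-point 3-fold titration. EGF (40 ng/mL, final 10 min) in A431 only. Tyr1068 phosphorylation measured by TR-FRET and IC50 fitted.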

[5] = test system: HCC827 cells; assay: 5-Day CellTiter Glo (CTG) cell proliferation assay, HCC827; type: cell-based; settings: Homo sapiens; HCC827 cells (d746-750 EGFR), 5-day CTG proliferation, 120 hours; read-out: HCC827 IC50
Method in brief: (§4)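 Luminescent ATP signal (CellTiter-Glo 2.0) after 120 hours of compound exposure gave IC50 values. PC-9 and HCC827 harbour EGFR d746-750; NCI-H1975 harbours L858R/T790M.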

[6] = test system: NCI-H1975 cells; assay: 5-Day CellTiter Glo (CTG) cell proliferation assay, NCI-H1975; type: cell-based; settings: Homo sapiens; NCI-H1975 cells (L858R/T790M EGFR), 5-day CTG proliferation, 120 hours; read-out: H1975 IC50
Method in brief: as §4

[7] = biological target: EGFR (L858R) (Homo sapiens, UniProt P00533, L858R); assay: HotSpot radiometric kinase assay, inhibition of EGFR L858R mutant; type: biochemical; settings: 33P ATP, room temperature, 120 m
Method in brief: as §1

[8] = biological target: T2, pEGFR, NCI-H1975 cells (L858R/T790M EGFR) (Homo sapiens, UniProt P00533, L858R/T790M); assay: Cellular EGFR phosphorylation assay (LANCE Ultra TR-FRET) in NCI-H1975 cells; type: cell-based; settings: 4 hours at 37° C., read-out: H1975 pEGFR IC50
T2 construct: pEGFR (Tyr1068) TR-FRET
Method in brief: as §3

[9] = biological target: EGFR WT (Homo sapiens, UniProt P00533); assay: HotSpot radiometric kinase assay, inhibition of EGFR WT; type: biochemical; settings: 33P ATP, room temperature, 120 m
Method in brief: as §1

[10] = biological target: EGFR (D770_N771insNPG) (Homo sapiens, UniProt P00533, INS770NPG); assay: HotSpot radiometric kinase assay, inhibition of EGFR (D770_N771insNPG) mutant; type: biochemical; settings: 33P ATP, room temperature, 120 m
Method in brief: as §1

[11] = biological target: EGFR (D746-750/C797S) (Homo sapiens, UniProt P00533, C797S/DEL746-750); assay: HotSpot radiometric kinase assay, inhibition of EGFR 746-750/C797S mutant; type: biochemical; settings: 33P ATP, room temperature, 120 m
Method in brief: as §1

[12] = test system: PC-9 cells; assay: 5-Day CellTiter Glo (CTG) cell proliferation assay, PC-9; type: cell-based; settings: Homo sapiens; PC-9 cells (d746-750 EGFR), 5-day CTG proliferation, 120 hours; read-out: PC-9 IC50
Method in brief: as §4

[13] = biological target: EGFR (L858R/T790M) (Homo sapiens, UniProt P00533, L858R/T790M); assay: HotSpot radiometric kinase assay, inhibition of EGFR L858R/T790M mutant; type: biochemical; settings: 33P ATP, room temperature, 120 m
Method in brief: as §1

[14] = biological target: T3, pEGFR, A431 cells (wildtype EGFR) (Homo sapiens, UniProt P00533); assay: Cellular EGFR phosphorylation assay (LANCE Ultra TR-FRET) in A431 cells; type: cell-based; settings: 4 hours at 37° C., 40 ng/mL EGF for the final 10 minutes, read-out: A431 pEGFR IC50
T3 construct: pEGFR (Tyr1068) TR-FRET
Method in brief: as §3

[15] = test system: BaF3 cells with engineered EGFR L858R/C797S; assay: 3-Day CellTiter Glo (CTG) cell proliferation assay, BaF3 EGFR L858R/C797S; type: cell-based; settings: Mus musculus, 3-day CTG proliferation, 72 hours
Method in brief: as §2

[16] = biological target: EGFR (L858R/T790M/C797S) (Homo sapiens, UniProt P00533, C797S/L858R/T790M); assay: HotSpot radiometric kinase assay, inhibition of EGFR L858R/T790M/C797S mutant; type: biochemical; settings: 33P ATP, room temperature, 120 m
Method in brief: as §1

T2 sequence (P00533 25-1210 T790M/L858R): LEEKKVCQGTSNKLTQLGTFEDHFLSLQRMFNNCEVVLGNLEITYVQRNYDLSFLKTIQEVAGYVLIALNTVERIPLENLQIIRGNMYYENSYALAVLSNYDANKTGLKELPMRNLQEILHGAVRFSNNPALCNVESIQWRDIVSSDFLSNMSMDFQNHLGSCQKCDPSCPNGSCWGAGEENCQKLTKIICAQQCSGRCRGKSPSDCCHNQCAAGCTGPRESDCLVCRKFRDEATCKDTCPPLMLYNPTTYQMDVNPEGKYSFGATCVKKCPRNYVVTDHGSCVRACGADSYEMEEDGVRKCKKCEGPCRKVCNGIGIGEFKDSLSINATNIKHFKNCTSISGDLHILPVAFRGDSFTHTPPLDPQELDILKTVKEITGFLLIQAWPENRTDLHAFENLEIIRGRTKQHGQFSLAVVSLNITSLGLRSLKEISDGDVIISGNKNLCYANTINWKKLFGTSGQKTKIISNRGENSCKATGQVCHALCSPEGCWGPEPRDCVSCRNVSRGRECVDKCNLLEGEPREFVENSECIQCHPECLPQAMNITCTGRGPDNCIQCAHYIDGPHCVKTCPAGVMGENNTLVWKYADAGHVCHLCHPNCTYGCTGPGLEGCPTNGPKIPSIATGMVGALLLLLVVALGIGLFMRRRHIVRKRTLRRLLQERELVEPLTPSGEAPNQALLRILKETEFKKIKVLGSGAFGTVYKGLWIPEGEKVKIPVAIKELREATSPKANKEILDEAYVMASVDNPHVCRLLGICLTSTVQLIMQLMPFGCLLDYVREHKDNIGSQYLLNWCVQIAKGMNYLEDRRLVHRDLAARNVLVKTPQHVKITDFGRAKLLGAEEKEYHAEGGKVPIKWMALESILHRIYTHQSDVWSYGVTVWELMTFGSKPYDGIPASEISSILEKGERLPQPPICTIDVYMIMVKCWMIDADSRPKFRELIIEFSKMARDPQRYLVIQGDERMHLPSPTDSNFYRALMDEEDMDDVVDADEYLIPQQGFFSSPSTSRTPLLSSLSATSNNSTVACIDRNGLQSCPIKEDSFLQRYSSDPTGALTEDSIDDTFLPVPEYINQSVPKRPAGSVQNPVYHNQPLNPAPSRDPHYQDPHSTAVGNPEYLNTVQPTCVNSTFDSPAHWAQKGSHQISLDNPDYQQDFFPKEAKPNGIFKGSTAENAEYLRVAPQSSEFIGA
EGFR (L858R/T790M), sequence (P00533 25-1210 T790M/L858R): as above
EGFR (L858R/T790M/C797S), sequence (P00533 25-1210 T790M/C797S/L858R): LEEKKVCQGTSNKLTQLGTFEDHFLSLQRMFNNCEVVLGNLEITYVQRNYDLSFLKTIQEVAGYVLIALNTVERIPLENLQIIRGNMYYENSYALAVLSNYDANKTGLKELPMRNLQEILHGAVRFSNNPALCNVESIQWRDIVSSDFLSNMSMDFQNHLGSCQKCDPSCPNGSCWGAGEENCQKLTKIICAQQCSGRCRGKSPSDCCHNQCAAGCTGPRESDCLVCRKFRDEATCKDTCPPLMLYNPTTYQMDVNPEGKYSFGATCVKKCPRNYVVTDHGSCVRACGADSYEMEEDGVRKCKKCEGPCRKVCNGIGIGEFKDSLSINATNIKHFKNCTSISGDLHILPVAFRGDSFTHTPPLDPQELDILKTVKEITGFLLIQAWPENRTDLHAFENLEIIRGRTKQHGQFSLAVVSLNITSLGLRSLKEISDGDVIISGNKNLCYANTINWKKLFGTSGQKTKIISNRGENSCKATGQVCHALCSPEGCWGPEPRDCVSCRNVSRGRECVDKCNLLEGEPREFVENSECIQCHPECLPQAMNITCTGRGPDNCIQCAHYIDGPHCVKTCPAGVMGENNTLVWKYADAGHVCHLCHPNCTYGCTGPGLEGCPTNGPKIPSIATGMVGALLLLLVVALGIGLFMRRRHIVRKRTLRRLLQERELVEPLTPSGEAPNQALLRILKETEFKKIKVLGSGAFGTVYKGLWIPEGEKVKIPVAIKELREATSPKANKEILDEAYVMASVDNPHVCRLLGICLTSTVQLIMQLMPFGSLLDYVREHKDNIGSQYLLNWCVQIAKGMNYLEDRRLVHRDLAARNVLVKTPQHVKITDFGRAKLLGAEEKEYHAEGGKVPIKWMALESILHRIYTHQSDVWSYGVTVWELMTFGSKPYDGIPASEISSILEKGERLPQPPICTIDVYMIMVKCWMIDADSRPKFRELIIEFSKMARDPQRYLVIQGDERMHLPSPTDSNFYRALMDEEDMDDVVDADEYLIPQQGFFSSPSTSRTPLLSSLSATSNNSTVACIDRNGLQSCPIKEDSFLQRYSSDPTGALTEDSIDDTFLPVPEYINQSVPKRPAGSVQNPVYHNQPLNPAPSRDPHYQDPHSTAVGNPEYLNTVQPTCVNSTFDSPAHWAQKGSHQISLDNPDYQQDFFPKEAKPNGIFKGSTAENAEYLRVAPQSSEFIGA
EGFR (D770_N771insNPG), sequence (P00533 with tags, fused parts or gaps INS770NPG limits assumed): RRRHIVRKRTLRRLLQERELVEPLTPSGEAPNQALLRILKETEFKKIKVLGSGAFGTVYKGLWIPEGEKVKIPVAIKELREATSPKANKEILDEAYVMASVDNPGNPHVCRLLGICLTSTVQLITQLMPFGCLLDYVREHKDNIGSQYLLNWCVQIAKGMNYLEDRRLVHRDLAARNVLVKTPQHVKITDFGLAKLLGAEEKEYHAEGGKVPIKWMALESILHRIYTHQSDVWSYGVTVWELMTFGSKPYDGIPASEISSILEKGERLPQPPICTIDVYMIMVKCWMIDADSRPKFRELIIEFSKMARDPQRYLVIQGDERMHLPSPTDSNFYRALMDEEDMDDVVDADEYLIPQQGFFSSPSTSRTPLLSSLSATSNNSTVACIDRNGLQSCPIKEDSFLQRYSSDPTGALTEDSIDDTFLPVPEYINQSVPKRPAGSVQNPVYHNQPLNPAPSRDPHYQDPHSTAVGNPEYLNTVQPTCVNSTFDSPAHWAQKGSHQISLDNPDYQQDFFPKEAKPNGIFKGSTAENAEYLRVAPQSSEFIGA

SMILES	IC50 [1]	IC50 [2]	IC50 [3]	IC50 [4]	IC50 [5]	IC50 [6]	IC50 [7]	IC50 [8]	IC50 [9]	IC50 [10]	IC50 [11]	IC50 [12]	IC50 [13]	IC50 [14]	IC50 [15]	IC50 [16]
CCOc1nn([C@@H](C)CO)c2c1/C=C/c1n[nH]c3cnc(cc13)-c1c(C)nn(C)c1O[C@@H](C)CN(C)C2 [Ex. 27, (2S)-2-[(10S,17E)-16-ethoxy-6,8,10,12-tetramethyl-2,8,10,11,12,13-hexahydro-14H-5,3-(azenometheno)tripyrazolo[3,4-f:3′,4′-j:4″,3″-n][1,4]oxazacyclopentadecin-14-yl]propan-1-ol]	0.28 nM	0.73 nM	0.55 nM	0.91 nM	0.26 nM	0.97 nM	0.89 nM	1.85 nM	0.31 nM	0.27 nM	0.9 nM	0.45 nM	0.51 nM	12.5 nM	0.07 nM	0.45 nM
CCOc1nn(CCO)c2c1/C=C/c1n[nH]c3cnc(cc13)-c1c(C)nn(C)c1O[C@H](C)CN(C(C)C)C2 [Ex. 1, 2-[(10R,17E)-16-ethoxy-6,8,10-trimethyl-12-(propan-2-yl)-2,8,10,11,12,13-hexahydro-14H-5,3-(azenometheno)tripyrazolo[3,4-f:3′,4′-j:4″,3″-n][1,4]oxazacyclopentadecin-14-yl]ethan-1-ol]	1.24 nM	1.57 nM	1.7 nM	3.09 nM	0.68 nM	28.6 nM	1.11 nM	3.01 nM	1.13 nM	1.51 nM	1.54 nM	4.66 nM	1.84 nM	19.1 nM	0.41 nM	0.99 nM
CCN1Cc2c(c(C)nn2CCO)/C=C/c2n[nH]c3cnc(cc23)-c2c(C)nn(C)c2O[C@@H](C)C1 [Ex. 13, 2-[(10S,17E)-12-ethyl-6,8,10,16-tetramethyl-2,8,10,11,12,13-hexahydro-14H-5,3-(azenometheno)tripyrazolo[3,4-f:3′,4′-j:4″,3″-n][1,4]oxazacyclopentadecin-14-yl]ethan-1-ol]	0.41 nM	1.05 nM	1.46 nM	1 nM	0.26 nM	4.27 nM	0.16 nM	2.09 nM	0.05 nM	0.07 nM	0.16 nM	0.38 nM	0.2 nM	12 nM	0.1 nM	0.19 nM
